Values joined by “and” are separate entries in the source; they are usually repeats but may differ in a detail not shown here. Equal entries are not always repeated. “Also recorded” adds a separate entry of the source. Where two headings read alike, the source gives them in different places.
How the values were obtained:
[1] = Metabolic stability in human liver microsomes
Protocol: The compounds were also assessed in human liver microsomal stability assays, plasma protein binding, aqueous solubility (pH 7.4), and evaluation of permeability using the Caco-2 assay.
Analysis in silico of the drug-like properties of the compounds generated in this study is used to drive compound selection. Physicochemical properties (log S, log P, etc.) of all of the new scaffolds are evaluated and compared to PF-74 using StarDrop (Optibrium, UK). The likelihood of metabolism of our new scaffolds, as compared to PF-74, by the common CYP P450 isoforms, was assessed using StarDrop and its P450 module (www dot optibrium dot com/stardrop/stardrop-p450-models dot php). StarDrop's P450 models use quantum mechanical calculations of the activation energy for hydrogen abstraction or direct oxidation, based on the semi-empirical AMi method. These are combined with ligand-based models of the steric and orientation effects of the binding pockets of each P450 isoform on the accessibility of each potential site of metabolism. This total analysis results in predictions of the regioselectivity of metabolism and the lability of each site, a measure of the efficiency of product formation—both important factors governing the rate of metabolism. Compounds of Formula I identified herein that meet the criteria for potency and cytotoxicity are evaluated in in vitro ADME assays (FIG. 8). Specifically, we use microsomal stability and plasma protein binding assessment as reliable indicators of clearance and half-life in vivo. Aqueous solubility is evaluated because low solubility or stability in assay media is detrimental to the development of sound structure-activity-relationships. Low solubility can also hamper our ability to formulate analogs for future in vivo studies. A Caco-2 assay is used to assess cell permeability issues.
T1/2 is the liver microsomal half-life, CLint, CLapp, and CLh are pharmacokinetic clearance parameters.

HIV-1 = test: microbe, parasite or virus in culture
Protocol: The potency of compounds of Formula I was evaluated via single round and multicycle HIV-1 replication assays. The single round assay is used as the first level of potency testing. […] The multicycle HIV-1 replication assay uses primary isolates and primary human peripheral blood mononuclear cells (PBMCs). Toxicity is evaluated simultaneously with the cells utilized in each assay to allow determination of the therapeutic index (TI=CC50/IC50) of each compound. HIV-1 replication assays are performed in primary PBMCs such as described in Kortager, et al., 2012, J Virol. 86(16):8472-8481, Zentner, et al., 2013, ChemMedChem. 8(3):426-432 and Zentner, et al., 2013, Bioorg Med Chem Lett. 2013; 23(4): 1132-1135.

HIV-1 CA hexamer protein = test: Direct binding to hexameric HIV-1 CA via SPR; conditions: sensor chip immobilized CA hexamer
From the text: A direct binding assay was established using SPR (surface plasmon resonance) (FIGS. 5-7). This assay allows for the confirmation that maintained target specificity is maintained, and the analysis of the kinetic signatures of newly synthesized compounds allows for prioritization of compounds for antiviral testing. […] Therefore, compounds with slower off-rates are prioritized for antiviral testing, as this characteristic should translate to increased potency. Additionally, the interaction of the next-generation compounds with CA proteins from clades A1, A2, B, C, and D (FIG. 11) was quantified. Hexameric versions of these constructs were developed, given their differential assembly properties, compared to the NL4-3 variant. This can be accomplished by modelling of the CA variants and mutation of residues (either A14C/E45C or A42C/T54C) between the N-terminal domains of adjacent subunits. Second, the cross-linked hexamers were prevented from polymerizing further into hyperstable capsid-like structures by mutations (W184A and M185A). The application of this to make hexameric capsomrs was first outlined in Pomillos et al. 2010. J. Mol. Biol. 401(5):985-95. The SPR analysis indicates a compound's potential performance in the therapeutic spectrum testing against other clades in the following sub-aim and provide a facile way in which to rank order compounds for antiviral testing.

[2] = Toxicity (CC50) evaluated with the cells utilized in the infection assay; format: cell-based; conditions: Table 2
Protocol: (§1) As used herein, the term “CC50” is the half-maximal cytotoxic concentration of a particular compound or agent.
(§2) The potency of compounds of Formula I was evaluated via single round and multicycle HIV-1 replication assays. The single round assay is used as the first level of potency testing. Compounds that display antiviral activity equal to or greater than PF-74 in the primary assay are quantified in the multicycle HIV-1 assays. The multicycle HIV-1 replication assay uses primary isolates and primary human peripheral blood mononuclear cells (PBMCs). Toxicity is evaluated simultaneously with the cells utilized in each assay to allow determination of the therapeutic index (TI=CC50/IC50) of each compound. HIV-1 replication assays are performed in primary PBMCs such as described in Kortager, et al., 2012, J Virol. 86(16):8472-8481, Zentner, et al., 2013, ChemMedChem. 8(3):426-432 and Zentner, et al., 2013, Bioorg Med Chem Lett. 2013; 23(4): 1132-1135.

[3] = tested on: cells utilized in each assay; test: as above; format: cell-based; conditions: Table 2
Protocol: as §1, §2

[4] = human liver microsomal stability assay, compared to PF-74
[5] = human, liver microsomes, T1/2, liver microsomal half-life, Table 3
[6] = human, liver microsomes, T1/2, metabolic stability of racemates and (R)/(S) enantiomers, Table 5
[7] = racemates and (R)/(S) enantiomers, Table 4
[8] = human liver microsomes, Table 1
[9] = liver microsomal half-life, Table 3
[10] = metabolic stability of racemates and (R)/(S) enantiomers, Table 5
[11] = inhibition of HIV-1 in the early stages of replication, Table 2

SMILES: CC(=O)CC(c1ccccc1)c1c(O)c2ccccc2oc1=O (centres unmarked) [Warfarin, reference compound]
- k ([1]; human): −0.00509

SMILES: CC(C)c1nc2c(n1CC(=O)NC(Cc1ccccc1)C(=O)N(C)c1ccccc1)CCCC2 (centres unmarked) [CX03]
- improvement in metabolic stability over PF-74 ([1]; human, microsomes): 4 fold
- reduction in potency relative to PF-74 (HIV-1; compared to PF-74): 10 fold
- binding to HIV-1 CA hexamer (in words) (HIV-1 CA hexamer protein): relatively low-affinity

SMILES: Cc1[nH]c2ccccc2c1CC(=O)N[C@H](Cc1ccccc1)C(=O)N(C)c1ccccc1 [(R)-PF-74, reference compound]
- T1/2 ([1]; human, microsomes): 0.6 min

SMILES: Cc1[nH]c2ccccc2c1CC(=O)NC(Cc1ccccc1)C(=O)N(C)c1ccc2[nH]ncc2c1 (centres unmarked) [Compound C11]
- improvement in metabolic stability over PF-74 [1, 4]: 34 fold
- microsomal CLint ([1]; human, liver microsomes): 78.7 µL/min/mg
- half-life [1, 5]: 18 min
- half-life [1, 6]: 17.6 min
- CLapp ([1]; liver microsomes, Table 3): 75.866 mL/min/kg
- CLh ([1]; liver microsomes, Table 3): 15.828 mL/min/kg
- Eh ([1]; liver microsomes, Table 3): 79.1
- k ([1]; liver microsomes, Table 3): 0.03934
- IC50 (HIV-1; Human immunodeficiency virus 1): 173 ± 58 nM
- Therapeutic index (CC50/IC50) (HIV-1; [7]): 2115
- CC50 [2]: 366000 ± 29000 nM

SMILES: Cc1[nH]c2ccccc2c1CC(=O)N[C@@H](Cc1ccccc1)C(=O)N(C)c1ccccc1 [PF-74, reference compound]
- CLapp [1, 8]: 2249.427 mL/min/kg
- CLint [1, 8]: 2332.7 µL/min/mg
- Clh [1, 8]: 19.824 mL/min/kg
- Eh [1, 8]: 99.12%
- T1/2 [1, 8]: 0.59 min
- k [1, 8]: 1.166
- metabolic lability (in words) [1, 8]: highly metabolically labile
- T1/2 [1, 9]: 0.6 min
- CLapp ([1]; liver microsomes, Table 3): 2249.427 mL/min/kg
- CLh ([1]; liver microsomes, Table 3): 19.824 mL/min/kg
- CLint ([1]; liver microsomes, Table 3): 2332.7 µL/min/mg
- Eh ([1]; liver microsomes, Table 3): 99.12
- k ([1]; liver microsomes, Table 3): 1.166
- T1/2 [1, 10]: 0.6 min
- IC50 (HIV-1; [11]): 95.1 ± 31.7 nM
- IC50 (HIV-1; [7]): 95.1 ± 31.7 nM
- Therapeutic index (CC50/IC50) (HIV-1; [7]): 768
- CC50 [3]: 73000 ± 15000 nM
- binding to HIV-1 CA hexamer (in words) (HIV-1 CA hexamer protein): higher affinity

SMILES: Cc1[nH]c2ccc(S(=O)(=O)F)cc2c1CC(=O)NC(Cc1ccccc1)C(=O)N(C)c1ccc2cn[nH]c2c1 (centres unmarked) [Compound C13]
- IC50 (HIV-1; Human immunodeficiency virus 1, 24 h, read-out: 24 h post-infection IC50): 23.1 ± 4.29 nM
- IC50 (HIV-1; Human immunodeficiency virus 1, 48 h, read-out: 48 h post-infection IC50): 23.9 ± 3.24 nM
- IC50 (HIV-1; Human immunodeficiency virus 1, 72 h, read-out: 72 h post-infection IC50): 29.1 ± 5.67 nM
- binding to HIV-1 CA hexamer (in words) (HIV-1 CA hexamer protein): even more potent binding than (S)-C11

SMILES: Cc1[nH]c2ccccc2c1CC(=O)N[C@@H](Cc1ccccc1)C(=O)N(C)c1ccccc1 [(S)-PF-74, reference compound]
- T1/2 ([1]; human, microsomes): 0.5 min
- IC50 (HIV-1; [7]): 80 ± 5.7 nM
- Therapeutic index (CC50/IC50) (HIV-1; [7]): 3075

SMILES: CN(C(=O)C(Cc1ccccc1)NC(=O)Cc1n[nH]c2c(N)cccc12)c1ccc2[nH]ncc2c1 (centres unmarked) [Compound C12]
- improvement in metabolic stability over PF-74 [1, 4]: 118 fold
- microsomal CLint ([1]; human, liver microsomes): 19.5 µL/min/mg
- half-life [1, 5]: 71 min
- half-life [1, 6]: 71 min
- CLapp ([1]; liver microsomes, Table 3): 18.819 mL/min/kg
- CLh ([1]; liver microsomes, Table 3): 9.696 mL/min/kg
- Eh ([1]; liver microsomes, Table 3): 48.5
- k ([1]; liver microsomes, Table 3): 0.00976
- IC50 (HIV-1; Human immunodeficiency virus 1): 302 ± 167 nM
- Therapeutic index (CC50/IC50) (HIV-1; [7]): 606
- CC50 [2]: 183000 ± 15000 nM

SMILES: C[C@]12CC[C@H]3[C@@H](CCC4=CC(=O)CC[C@@]43C)[C@@H]1CC[C@@H]2O [Testosterone, reference compound]
- CLapp [1, 8]: 74.292 mL/min/kg
- Clh [1, 8]: 15.758 mL/min/kg
- CLapp ([1]; liver microsomes, Table 3): 74.292 mL/min/kg
- CLh ([1]; liver microsomes, Table 3): 15.758 mL/min/kg

SMILES: CN(C(=O)C(Cc1ccccc1)NC(=O)Cc1n[nH]c2c(N)cccc12)c1ccccc1 (centres unmarked) [Compound C4]
- improvement in metabolic stability over PF-74 [1, 4]: 34 fold and 30 fold
- T1/2 [1, 9]: 20 min
- CLapp ([1]; liver microsomes, Table 3): 67.126 mL/min/kg
- CLh ([1]; liver microsomes, Table 3): 15.409 mL/min/kg
- CLint ([1]; liver microsomes, Table 3): 69.6 µL/min/mg
- Eh ([1]; liver microsomes, Table 3): 77
- k ([1]; liver microsomes, Table 3): 0.03481
- T1/2 [1, 10]: 20 min
- increase in the therapeutic index (CC50/IC50) over PF-74 (HIV-1; compared to PF-74): over 7 fold
- IC50 (HIV-1; [11]): 51.5 ± 18.4 nM
- IC50 (HIV-1; [7]): 51.5 ± 18.4 nM
- Therapeutic index (CC50/IC50) (HIV-1; [7]): 5515
- CC50 [3]: 284000 ± 200 nM
- binding to HIV-1 CA hexamer (in words) (HIV-1 CA hexamer protein): interacts with the CA hexamer similarly to PF-74; also recorded: higher affinity

From patent US20210115061A1, “Small-Molecule HIV-1 Capsid Protein Inhibitors and Methods Using Same” (DREXEL UNIVERSITY, priority 2018, published 2021)
